Measurements: article PMC9166630, “SAR Probing of KX2-391 Provided Analogues With Juxtaposed Activity Profile Against Major Oncogenic Kinases” (Frontiers in Oncology, 2022)

Columns and labels:
AKT 1/2/3 = experiment: Human phosphokinase array, AKT 1/2/3; type: cell-based
Text: The kinome tree representation (Figure 7C), which was generated by raising the Kinase Score cut-off to >1.2, confirmed that, unlike tirbanibulin and our prototype molecule KX1-136, 4e’s effects were more observable on kinases other than the Src family such as the Eph and TEC families. […] Therefore, we screened compound 4e using the Human Phospho-Kinase Array® kit from R&D systems (Minneapolis, MN, USA). In this system, 35 phosphorylated YK and serine-threonine kinase (STK) enzymes in the untreated (control) and treated (test) HL60 cell lysates were captured on nitrocellulose membrane, pre-spotted with phosphokinase-specific capture antibodies, and then visualized by detection antibody cocktails (Figure 8). The difference in the spot intensity between untreated (control) and treated cells is proportional to change in the amount of the phosphorylated protein induced by 4e.
The phosphorylation profile of 48 kinases was performed using the Proteome Profiler Human Phospho-Kinase Antibody Array Kit by R&D Systems (Minneapolis, MN, USA) according to the protocol. Briefly, the total cellular protein was extracted using the Lysis buffer and was quantified using Bio-Rad DC Protein Assay kit (Hercules, CA, USA). Nitrocellulose membrane set (A&B), pre-spotted with kinase-specific capture antibodies, were first blocked with Array Buffer-1 at RT for 30 min on a rocking platform shaker. Approximately 600 µg of protein concentrate was diluted in the buffer provided and was added onto the membrane set, and the membranes were incubated overnight at 4°C in an 8-well plate. Subsequently, membranes were washed with Wash Buffer and incubated with appropriate Detection Antibody cocktails for 2 h at RT. Streptavadin-HRP (1:2000) was added onto membranes and incubated for 30 min at RT. Membranes were washed, and Chemiluminescent Detection Reagents 1&2 were applied in equal volumes for detection. The signals were detected on C-DiGit®Blot Scanner (LI-COR, Odyssey Imaging Systems, Lincoln, Nebraska, USA) using Image Studio 5.0 software.

TEC = target: T1, TEC (Homo sapiens, UniProt P42680); experiment: PamChip tyrosine kinase microarray, TEC; type: biochemical; settings: 4e 0.1 µM, HL60 lysate
T1 construct: endogenous in cells; host or cells: HL60 lysate
T1 sequence (P42680 1-631): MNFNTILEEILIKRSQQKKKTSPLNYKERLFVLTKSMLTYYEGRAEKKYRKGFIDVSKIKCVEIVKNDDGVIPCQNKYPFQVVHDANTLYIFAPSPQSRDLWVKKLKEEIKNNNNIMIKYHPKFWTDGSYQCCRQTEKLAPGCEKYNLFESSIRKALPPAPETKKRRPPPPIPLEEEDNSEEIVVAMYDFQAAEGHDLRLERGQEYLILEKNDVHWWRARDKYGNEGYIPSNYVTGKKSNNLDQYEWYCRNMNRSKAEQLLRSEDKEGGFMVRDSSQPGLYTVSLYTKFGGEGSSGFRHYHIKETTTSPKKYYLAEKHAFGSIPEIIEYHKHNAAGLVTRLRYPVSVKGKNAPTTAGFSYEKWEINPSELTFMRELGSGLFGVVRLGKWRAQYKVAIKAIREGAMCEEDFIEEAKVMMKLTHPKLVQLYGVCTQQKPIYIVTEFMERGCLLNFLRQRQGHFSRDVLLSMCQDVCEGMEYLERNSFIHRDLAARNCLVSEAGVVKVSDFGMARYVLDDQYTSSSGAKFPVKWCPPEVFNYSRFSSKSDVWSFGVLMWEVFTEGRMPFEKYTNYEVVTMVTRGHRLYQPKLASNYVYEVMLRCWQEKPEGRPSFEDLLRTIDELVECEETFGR
Procedure: (§1) The changes in kinase activities induced by treatment with 4e were monitored within the HL60 cell lines using PamGene’s (Hertogenbosch, Netherlands) PamChip® peptide microarray profiler, which quantifies the activities of 144 tyrosine kinases (YK) ([29], [30]) (Figure 7). Results are provided as a log fold change (LFC) heatmap and Mean Kinase Statistic. From the LFC it is apparent that compound 4e, at a concentration of 0.1 µM, induced sizable changes to the activity of several kinases within the cell signaling YK profile (Figure 7A).
(§2) An Upstream Kinase tool was used to generate a putative list of kinases responsible for phosphorylating the phospho-sites on the PamChip (Figure 7B) ([31]). It is an interpretation and is highly dependent on the contents of the underlying phosphorylation databases. A Kinase Score was used for ranking kinases based on their significance and specificity in terms of the set of peptides used for the corresponding kinase. Kinase Statistics indicates the overall change of the peptide set that represents the kinase. Kinase statistics value <0 indicates lower kinase activity in the compound spiked lysate and vice versa ([32], [33]). Table 5 lists the 20 most changed kinases within treated HL60 cell lysates by 0.1 μM 4e, ranked according to their Kinase Score.
The compound 4e was spiked into HL60 cell lysate at different concentrations (0.001, 0.01, 0.1, 1, 10 and 50 μM). In addition, DMSO was also spiked in HL60 lysate at low concentration (2% v/v) as control. Samples were profiled on PamGene’s Tyrosine Kinase (PTK) arrays in technical replicates, covering a total of 196 phosphorylation sites. Frozen HL60 cultured cell pellet was sent to PamGene. At PamGene, cells were lysed using a lysis buffer and proteases inhibitors cocktail. Protein concentration was measured using standard Bradford assay as per PamGene SOPs. These lysates were further used for generating the PTK activity profiles. For spiking, 4e was received as powder form and dissolved in DMSO at PamGene facility followed by storing at -20°C in small aliquots. PamGene used its in-house bioinformatics toolbox in combination with other methods to generate hypotheses of signaling pathways.

Lyn = experiment: PamChip tyrosine kinase microarray, Lyn; type: biochemical, human; settings: 4e 0.1 µM, HL60 lysate
Procedure: as §1, §2
(§3) The two multiple-kinase tests (PamChip and Phosphokinase Profiler) provided strong evidence of very minor involvement of Src in the cellular activities of 4e. However, the question must be raised about the effect of the 4e on other SRC family kinase (SFK). To address this point, we must highlight that both R&D phosphokinase profiler and PamChip feature Yes, Fgr, Lyn, Lck and Src while Fyn, Hck, Blk and Frk activities are tested in the PamChip only. The signals of SFKs in the R&D Phosphokinase Profiler were too weak to detect in both untreated (control) and 4e-treated HL60 cells. In PamChip assay, most of SFK’s were not ranked in the top 20 affected kinases (Table 5). In addition, their Specificity Score were very low (Table 6) indicating their marginal importance to the cell killing activities of 4e. Fgr kinase which ranked 7th in the list (Table 5) was the only SFK member that seems to be affected by the compound, albeit with low Specificity Score (1.03).
(§4) The compound 4e was spiked into HL60 cell lysate at different concentrations (0.001, 0.01, 0.1, 1, 10 and 50 μM). In addition, DMSO was also spiked in HL60 lysate at low concentration (2% v/v) as control. Samples were profiled on PamGene’s Tyrosine Kinase (PTK) arrays in technical replicates, covering a total of 196 phosphorylation sites. Frozen HL60 cultured cell pellet was sent to PamGene. […] Protein concentration was measured using standard Bradford assay as per PamGene SOPs. […]

Fyn = experiment: PamChip tyrosine kinase microarray, Fyn; type: biochemical, human; settings: 4e 0.1 µM, HL60 lysate
Procedure: as §1, §2, §3, §4

O=C(Cc1ccc(NC(=O)c2cccc(Cl)c2)cc1)NCc1ccccc1 [Compound 4e, N-(4-(2-(benzylamino)-2-oxoethyl)phenyl)-3-chlorobenzamide]
increased phosphorylation of Akt1/2/3 at Thr308 and Ser473 compared to control (AKT 1/2/3; HL60, versus no treatment): > 117 fold
phosphokinase signal after 4e exposure, AKT 1/2/3 (AKT 1/2/3; HL60 cell lysate, treated): 22.29
% Change, AKT 1/2/3 (AKT 1/2/3; treated vs untreated HL60): 11783.08%
Change in Signal, AKT 1/2/3 (AKT 1/2/3; treated vs untreated HL60): 22.10
Mean Final Score (TEC): 1.9733
Mean Kinase Statistic (TEC): -0.5256
Mean Significance Score (TEC): 1.3350
Mean Specificity Score (TEC): 0.6383
Mean Final Score (Lyn): 1.9530
Mean Kinase Statistic (Lyn): -0.5775
Mean Significance Score (Lyn): 1.2715
Mean Specificity Score (Lyn): 0.6815
Mean Final Score (Fyn): 1.4765
Mean Kinase Statistic (Fyn): -0.4963
Mean Significance Score (Fyn): 1.1307
Mean Specificity Score (Fyn): 0.3458
